Starred links: 1 amine or outer side, 2 acyl side, 3 side chain; linkers in the order of their positions; H or OH if unused. Positions of bridges follow the written chain, without caps; N, C: chain ends. Non-standard residues stand in square brackets, D forms with d. Residues, ends and D or L forms follow the SMILES beside them. *: point of attachment. hPhe(3-Cl-4-CF3) = N[C@@H](CCc1ccc(C(F)(F)F)c(Cl)c1)C(=O)O; X1 = CN([C@@H](CC1CCC(F)(F)CC1)C(=O)[*:2])[*:1]; NMePhe(4-Me) = CN[C@@H](Cc1ccc(C)cc1)C(=O)O; X4 = C#Cc1cccc(C[C@H](N[*:1])C(=O)[*:2])c1; X5 = O=C([C@H](Cc1cccc(F)c1F)N[*:1])[*:2]; Phe(3-I) = N[C@@H](Cc1cccc(I)c1)C(=O)O; X2 = CC(C)=CC[C@H](N[*:1])C(=O)[*:2]; NMeY = CN[C@@H](Cc1ccc(O)cc1)C(=O)O; NMeCha = CN[C@@H](CC1CCCCC1)C(=O)O; X6 = O=C(CN(CCN1CCNCC1)[*:1])[*:2]; X3 = C[C@H](CN(C)[*:1])C(=O)[*:2]; NMeChg = CN[C@H](C(=O)O)C1CCCCC1; NMeF = CN[C@@H](Cc1ccccc1)C(=O)O; Gly(cBu) = N[C@H](C(=O)O)C1CCC1; NMeD = CN[C@@H](CC(=O)O)C(=O)O; NMeL = CN[C@@H](CC(C)C)C(=O)O; NMehSer = CN[C@@H](CCO)C(=O)O; NMeV = CN[C@H](C(=O)O)C(C)C; d(β3hA) = C[C@@H](N)CC(=O)O; NMeS = CN[C@@H](CO)C(=O)O; Pip = O=C(O)[C@@H]1CCCCN1; NMeA = CN[C@@H](C)C(=O)O; NMeAib = CNC(C)(C)C(=O)O; Nle = CCCC[C@H](N)C(=O)O; Piperidide = C1CCN(*)CC1; Ac5c = NC1(C(=O)O)CCCC1; Aze = O=C(O)[C@@H]1CCN1; Sar = CNCC(=O)O
What was measured:
mutant KRAS (G12D) = mutant KRAS (G12D) (Homo sapiens, UniProt P01116, G12D); test: Surface plasmon resonance (SPR) binding to mutant KRAS (G12D); conditions: SPR Biacore 8K+, Single Cycle Kinetics, 30° C., 10 μM GDP, 1:1 binding model; read-out: Dissociation Constant KD (nM) for Mutant KRAS (G12D)
wild type KRAS(WT) = wild type KRAS(WT) (Homo sapiens, UniProt P01116); test: Surface plasmon resonance (SPR) binding to wild type KRAS; conditions: SPR Biacore 8K+, Single Cycle Kinetics, 30° C., 10 μM GDP, 1:1 binding model; read-out: Dissociation Constant KD (nM) for Wild Type KRAS

Row | Compound | Kd (mutant KRAS (G12D)) [nM] | Kd (wild type KRAS(WT)) [nM]
1 | CC(C)=CC[C@@H]1NC(=O)[C@H](Cc2cccc(I)c2)NC(=O)CN(C)C(=O)[C@H](CC2CCC(F)(F)CC2)N(C)C(=O)[C@@H]2CCN2C(=O)[C@@H]2CCCCN2C(=O)[C@H](C2CCC2)NC(=O)[C@H](CC(C)C)N(C)C(=O)C[C@@H](C(=O)N2CCCCC2)N(C)C(=O)[C@H](CC(C)C)NC(=O)[C@H](Cc2ccccc2)N(C)C1=O [Compound 2, (1S,6S,9S,15S,18S,21S,24S,27S,31S,34S)-21-benzyl-34-cyclobutyl-9-[(4,4-difluorocyclohexyl)methyl]-15-[(3-iodophenyl)methyl]-24,31-diisobutyl-8,11,20,26,30-pentamethyl-18-(3-methylbut-2-enyl)-27-(piperidine-1-carbonyl)-3,8,11,14,17,20,23,26,30,33,36-undecazatricyclo[34.4.0.03,6]tetracontane-2,7,10,13,16,19,22,25,29,32,35-undecanone] ([NMeL][Gly(cBu)][Pip][Aze][X1][Sar][Phe(3-I)][X2][NMeF]L[NMeD]-Piperidide; lactam N-11) | 4.4 | 44
2 | CCCC[C@@H]1NC(=O)[C@H](Cc2cccc(I)c2)NC(=O)CN(C)C(=O)[C@H](Cc2ccc(C)cc2)N(C)C(=O)CN(C)C(=O)CN(C)C(=O)[C@H]([C@@H](C)CC)NC(=O)[C@H](CCOC)N(C)C(=O)C[C@@H](C(=O)N2CCCCC2)N(C)C(=O)[C@H](CC(C)C)NC(=O)[C@H](COC)N(C)C1=O [Compound 3, (3S,6S,9S,12S,18S,27S,30S,34S)-9-butyl-12-[(3-iodophenyl)methyl]-3-isobutyl-30-(2-methoxyethyl)-6-(methoxymethyl)-1,7,16,19,22,25,31-heptamethyl-27-[(1S)-1-methylpropyl]-34-(piperidine-1-carbonyl)-18-(p-tolylmethyl)-1,4,7,10,13,16,19,22,25,28,31-undecazacyclotetratriacontane-2,5,8,11,14,17,20,23,26,29,32-undecanone] ([NMehSer](Me)I[Sar][Sar][NMePhe(4-Me)][Sar][Phe(3-I)][Nle][NMeS](Me)L[NMeD]-Piperidide; lactam N-11) | 2.9 | 43
3 | C#Cc1cccc(C[C@@H]2NC(=O)CN(C)C(=O)[C@H](CC3CCCCC3)N(C)C(=O)CN(C)C(=O)CN(C)C(=O)[C@H]([C@@H](C)CC)NC(=O)[C@H](C)CN(C)C(=O)C[C@@H](C(=O)N3CCCCC3)N(C)C(=O)[C@H](CC(C)C)NC(=O)C(C)(C)N(C)C(=O)[C@H](Cc3ccc(OC)cc3)NC2=O)c1 [Compound 4, (3S,9S,12S,18S,27S,30R,35S)-18-(cyclohexylmethyl)-12-[(3-ethynylphenyl)methyl]-3-isobutyl-9-[(4-methoxyphenyl)methyl]-1,6,6,7,16,19,22,25,30,32-decamethyl-27-[(1S)-1-methylpropyl]-35-(piperidine-1-carbonyl)-1,4,7,10,13,16,19,22,25,28,32-undecazacyclopentatriacontane-2,5,8,11,14,17,20,23,26,29,33-undecaone] ([X3]I[Sar][Sar][NMeCha][Sar][X4]Y(Me)[NMeAib]L[NMeD]-Piperidide; lactam N-11) | 1.5 | 23
4 | CCCC[C@@H]1NC(=O)[C@H](Cc2cccc(F)c2F)NC(=O)CN(C)C(=O)[C@H](Cc2ccc(OC)cc2)N(C)C(=O)[C@@H]2CCN2C(=O)[C@@H]2CCCCN2C(=O)[C@H](C2CCC2)NC(=O)[C@H](CC(C)C)N(C)C(=O)C[C@@H](C(=O)N2CCCCC2)N(C)C(=O)[C@H](CC(C)C)NC(=O)C(C)(C)N(C)C1=O [Compound 5, (1S,6S,9S,15S,18S,24S,27S,31S,34S)-18-butyl-34-cyclobutyl-15-[(2,3-difluorophenyl)methyl]-24,31-diisobutyl-9-[(4-methoxyphenyl)methyl]-8,11,20,21,21,26,30-heptamethyl-27-(piperidine-1-carbonyl)-3,8,11,14,17,20,23,26,30,33,36-undecazatricyclo[34.4.0.03,6]tetracontane-2,7,10,13,16,19,22,25,29,32,35-undecaone] ([NMeL][Gly(cBu)][Pip][Aze][NMeY](Me)[Sar][X5][Nle][NMeAib]L[NMeD]-Piperidide; lactam N-11) | 3.6 | 19
5 | CC[C@H](C)[C@@H]1NC(=O)[C@H](CC(C)C)N(C)C(=O)C[C@@H](C)NC(=O)[C@H](C(C)C)N(C)C(=O)C2(CCCC2)NC(=O)[C@@H]2CCCN2C(=O)[C@H](CCc2ccc(C(F)(F)F)c(Cl)c2)NC(=O)CN(C)C(=O)[C@H](CC2CCCCC2)N(C)C(=O)[C@@H]2CCN2C(=O)[C@H](C)N(C)C1=O [Compound 6, (3S,9S,12S,17S,20S,23S,27R,30S,36S)-3-[2-[3-chloro-4-(trifluoromethyl)phenyl]ethyl]-9-(cyclohexylmethyl)-23-isobutyl-30-isopropyl-7,10,17,18,24,27,31-heptamethyl-20-[(1S)-1-methylpropyl]spiro[1,4,7,10,15,18,21,24,28,31,34-undecazatricyclo[34.3.0.012,15]nonatriacontane-33,1′-cyclopentane]-2,5,8,11,16,19,22,25,29,32,35-undecaone] (cyclo([Ac5c][NMeV][d(β3hA)][NMeL]I[NMeA][Aze][NMeCha][Sar][hPhe(3-Cl-4-CF3)]P)) | 21 | 16
6 | CC[C@H](C)[C@@H]1NC(=O)[C@H](CC(C)C)N(C)C(=O)C[C@@H](C(=O)N2CCCCC2)N(C)C(=O)[C@H](C2CCCCC2)N(C)C(=O)C2(CCCC2)NC(=O)CN(CCN2CCNCC2)C(=O)[C@H](CCc2ccc(C(F)(F)F)c(Cl)c2)NC(=O)CN(C)C(=O)[C@H](CC2CCCCC2)N(C)C(=O)CN(C)C(=O)CN(C)C1=O [Compound 7, (11S,17S,26S,29S,33S,36S)-11-[2-[3-chloro-4-(trifluoromethyl)phenyl]ethyl]-36-cyclohexyl-17-(cyclohexylmethyl)-29-isobutyl-15,18,21,24,30,34,37-heptamethyl-26-[(1 S)-1-methylpropyl]-9-(2-piperazine-1-ylethyl)-33-(piperidine-1-carbonyl)-6,9,12,15,18,21,24,27,30,34,37-undecazaspiro[4.33]octatriacontane-7,10,13,16,19,22,25,28,31,35,38-undecaone, reference compound] ([NMeL]I[Sar][Sar][NMeCha][Sar][hPhe(3-Cl-4-CF3)][X6][Ac5c][NMeChg][NMeD]-Piperidide; lactam N-11) | 0.18 | 0.94
